Test results as given in the METLIN SMRT retention time set (Domingo-Almenara et al. 2019).

Assay: gradient 5% acetonitrile 3 min, to 50% in 2 min, to 85% in 15 min, held 3 min, 100 µL/min
Details: column: Zorbax Extend-C18 2.1 x 50 mm; eluents: water / acetonitrile, 0.1% formic acid
Summary of the method: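 Mixtures of ~100 pure standards were chromatographed on a Zorbax Extend-C18 column (2.1 × 50 mm, 1.8 μm) at 100 μL/min using water and acetonitrile, each with 0.1% formic acid. Detection used a quadrupole time-of-flight mass spectrometer in positive and negative ionization mode, and data collection spanned 3 months. Retention time was obtained from adduct peaks picked computationally and each checked manually.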

Row | RP-LC retention time [s] | SMILES
1 | 570 | O=C(NCCN1CCOCC1)C1CCN(c2nc3cccnc3s2)CC1
2 | 779 | COC(=O)c1cc(OCC(=O)Nc2cccc(OC)c2)c2ccccc2n1
3 | 1300 | CCOc1nc2ccccc2nc1N1CCCC(C(=O)N2CCN(c3ccc(F)cc3)CC2)C1 (stereo not given)
4 | 898 | O=C(Cn1nc2c(Oc3ccccc3)nccn2c1=O)Nc1ccc(Br)cc1F
5 | 872 | O=C(NCc1ccc(F)c(Cl)c1)c1nnn(-c2ccccc2)c1-c1ccccn1
6 | 993 | CCCN1C(=O)COc2ccc(-c3noc(Cc4ccc(OC)c(OC)c4)n3)cc21
7 | 711 | CCc1nnc(NS(=O)(=O)c2ccc(N)cc2)s1
8 | 618 | CCN1CCN(CCNC(=O)c2c(-c3ccc(Br)s3)noc2C)CC1
9 | 866 | Cc1ccc(NC(=O)Cn2nc(C)cc2C(=O)Nc2ccc3c(c2)OCO3)cc1
10 | 936 | COc1ccc(NC(=O)CSc2nccc(N3CCN(c4cc(C)ccc4C)CC3)n2)cc1Cl
11 | 764 | Cc1ccc(-c2noc(-c3cccn(CC(=O)NC(C)C)c3=O)n2)cc1
12 | 662 | CCCNc1cc(N2CCC(CCC(=O)NCCc3cccs3)CC2)ncn1
13 | 755 | CN(C)c1cc(-n2cnc(C(=O)Nc3ccc4c(c3)OCCO4)c2)ncn1
14 | 854 | CC(=O)Nc1ccc(S(=O)(=O)N2CC=C(c3cn(C(C)C)c4ncccc34)CC2)cc1
15 | 763 | O=C(NCc1ccc2c(c1)OCO2)C1CCN(c2cnc(N3CCSCC3)nc2)CC1
16 | 776 | COCCN1C(=O)c2ccccc2C(C(=O)Nc2ccc(OC)c(OC)c2)C12CCCC2 (stereo not given)
17 | 1010 | CCCCNC(=O)C1CCN(C(=O)c2cc3ccsc3n2Cc2ccc(Cl)cc2)CC1
18 | 610 | COc1ccc(Nc2nc(N)c3ccccc3n2)cc1
19 | 644 | O=C(NCc1ccccc1C(F)(F)F)C1CCN(c2cncnc2N2CCOCC2)CC1
20 | 1260 | CCCOc1nc2ccccc2nc1N1CCCC(C(=O)NC2CCCCC2)C1 (stereo not given)
21 | 1070 | CCOc1nc2ccccc2nc1N1CCCC(C(=O)N2CCCC2)C1 (stereo not given)
22 | 640 | CCCc1cc(N2CCN(C(=O)COc3ccccc3)CC2)nc2nncn12
23 | 816 | CCN1C(=O)c2cccnc2Sc2cc(NC(=O)C3CCCC3)ccc21

Row | RP-LC retention time [s] | SMILES
24 | 681 | CC(=O)Nc1ccc(-n2cnc(C(=O)NCc3ccc(F)cc3)c2)nc1
25 | 688 | NC(=O)c1cc(N2CCOCC2)nc2ccc(F)cc12
26 | 715 | Cc1cc2c(cc1NC(=O)CCc1ccccc1)n(C)c(=O)n2C
27 | 811 | COC(=O)c1ccccc1NC(=O)CCCn1cnc(-c2ccccc2)cc1=O
28 | 813 | O=C(NCCc1ccco1)C1CCN(Cc2cc3ccccc3n2Cc2cccc(Cl)c2)CC1
29 | 599 | CCCN(CCC)CCNC(=O)C1CCCN(c2ncnc3c2nc2n3CCCCC2)C1 (stereo not given)
30 | 1040 | Cc1ccc(S(=O)(=O)NCCC(=O)N2CCCC2c2nc(-c3ccc(Cl)cc3)no2)cc1 (stereo not given)
31 | 595 | N=C(N)c1ccc2cc(OC(=O)c3ccc(N=C(N)N)cc3)ccc2c1
32 | 576 | COc1cccc(-c2nc(NCc3cccnc3)ncc2C(=O)O)c1
33 | 625 | COCCCNC(=O)C1CCCN(c2ncnc3c2nc2n3CCCCC2)C1 (stereo not given)
34 | 1040 | COc1ccc(C(=O)Nc2nc(-c3ccccc3)cs2)cc1
35 | 704 | Cc1ccc(NC(=O)NCC2CCOCC2)cc1
36 | 911 | COc1ccccc1CNC(=O)c1nnc(-c2ccc(S(=O)(=O)N3CCCCC3)cc2)o1
37 | 825 | CCOc1ccc(-c2nc(-c3ccc4c(c3)ncn4CCC(=O)N3CCCC3)no2)cc1
38 | 1010 | CCOc1ccc(OCC)c(NC(=O)CSc2nnc3c4cc(-c5ccc(OC)cc5)nn4ccn23)c1
39 | 845 | COc1ccc(N2C(=O)CC(c3ccc(OC)c(OC)c3)CC2=O)cc1Cl
40 | 620 | Cc1cc(C)c2[nH]c3c(c(=O)c2c1)CN(CC(=O)NCc1ccc2c(c1)OCO2)CC3
41 | 1100 | Cc1ccc(Nc2c(-c3ccc([N+](=O)[O-])cc3)nc3ccc(Cl)cn23)cc1
42 | 656 | CCCNC(=O)C1CCCN(c2ccc(SCC(=O)Nc3ccc(CC)cc3)nn2)C1 (stereo not given)
43 | 910 | O=S(=O)(c1ccc2nncn2c1)N(Cc1cc(F)cc(F)c1)c1cc(F)cc(F)c1
44 | 1020 | CNC(=O)c1c(NC(=O)COc2ccccc2)sc2c1CCC2
45 | 637 | O=C(CSc1nccn1Cc1ccco1)Nc1ccccc1C(F)(F)F
46 | 800 | Cc1ccc(NC(=O)Cn2c(C)nc3onc(C)c3c2=O)c(C)c1

Row | RP-LC retention time [s] | SMILES
47 | 705 | CCn1c(C2CCN(S(=O)(=O)c3cccc4nsnc34)C2)nc2cccnc21 (stereo not given)
48 | 972 | CC(C)c1noc(-c2cc(=O)n(CC(=O)Nc3ccccc3)c3ccccc23)n1
49 | 770 | O=C(NC1CCCCC1)c1ccc(CN2C(=O)C3CCCN3C(=O)c3ccccc32)cc1 (stereo not given)
50 | 684 | Cc1cccn2c(Nc3ccccc3)c(-c3ccc(N4CCOCC4)cc3)nc12
51 | 1180 | COc1ccc(OC)c(NC(=O)Cn2nc(N3CCC(C)CC3)c3ccccc3c2=O)c1
52 | 954 | CC1CCN(C(=O)c2cn(-c3ccc(S(=O)(=O)N4CCCC(C)C4)cn3)cn2)CC1 (stereo not given)
53 | 830 | Cc1c(C(=O)NC2CC2)cc(-c2ccc(F)cc2)n1C
54 | 682 | COC(=O)c1ccc(NS(=O)(=O)c2cc3n(c2)CCN(C)C3=O)cc1
55 | 655 | COc1ccc2[nH]c(=O)c(CCC(=O)NCc3ccco3)cc2c1
56 | 628 | O=C(N[C@@H]1CN(c2ncccn2)C[C@H]1CO)c1ccc(Cl)cc1
57 | 846 | CCc1cccc(N(C)C(N)=Nc2cccc3ccccc23)c1
58 | 631 | CC(C)c1nc(-c2ccc(OC3CCNC3)cc2)no1 (stereo not given)
59 | 905 | COc1ccccc1NC(=O)C1C(=O)NC2(C)CC1c1ccccc1O2 (stereo not given)
60 | 632 | CC1CCCC(C)N1CCCNC(=O)Cn1ncc2c3ccccc3n(C)c2c1=O (stereo not given)
61 | 1120 | C=CCN1C(=O)COc2ccc(-c3csc(NC(=O)c4cccc(Br)c4)n3)cc21
62 | 902 | O=c1c2c(CO)c(-c3ccccc3)nn2ccn1Cc1ccccc1F
63 | 754 | CC(C)c1noc(-c2cccnc2N2CCCN(Cc3ccc(F)cc3Cl)CC2)n1
64 | 554 | Cn1c(=O)c2c(-c3ccncc3)c(C#N)c(N)nc2n(C)c1=O
65 | 592 | CCC1CN(C(=O)N2CCC(C(=O)NCCCN3CCN(C)CC3)CC2)c2ccccc2O1 (stereo not given)
66 | 620 | O=C(Nc1ccc(F)cc1F)C1(CCO)CCN(Cc2ccccc2)C1 (stereo not given)
67 | 805 | CCc1ccc(NC(=O)Cc2nnc3c(-c4nc(C5CC5)no4)cccn23)cc1
68 | 945 | CCN(C(=O)c1cc2c(=O)n(CC)c3ccccc3n2n1)c1ccc(F)cc1
69 | 602 | COc1ccc(-c2cc(N3CCN(C(=O)NC(C)C)CC3)ncn2)cc1OC

Row | RP-LC retention time [s] | SMILES
70 | 702 | CNC(=O)Nc1cccn2nc(-c3ccccc3)nc12
71 | 654 | CCOc1ccc(NC(=O)N2C[C@H]3C[C@H](C2)[C@H]2CCCC(=O)N2C3)cc1
72 | 723 | O=c1[nH]cc(I)cc1I
73 | 1080 | Cc1cc(C)c(NC(=O)CSc2nccc(N3CCN(c4cc(C)ccc4C)CC3)n2)c(C)c1
74 | 714 | O=C(Cn1c(=O)cc(C(=O)N2CCCC2)c2ccccc21)Nc1ccccc1Cl
75 | 1170 | COc1ccc(NC(=O)c2cn(-c3cc(N4CCCC(C)C4)ncn3)cn2)c(OC)c1 (stereo not given)
76 | 852 | CC(C)CC(=O)N1CCc2c(c(-c3nnc(-c4ccccc4Cl)o3)nn2C)C1
77 | 787 | Cc1ccccc1Nc1c(-c2cccc(Cl)c2)nc2ccccn12
78 | 556 | Cc1ccc2c(C(=O)N3CCN(C4CCCCC4)CC3)cc(NC(=O)C3CCC3)cc2n1
79 | 874 | CC(=O)Cc1nsc(NC(=O)c2ccc(C(C)(C)C)cc2)n1
80 | 786 | CCN1c2ccc(C)cc2C(=O)NC12CCN(C(=O)c1ccccc1OC)CC2
81 | 707 | Cc1cccc(Nc2ncccc2C(=O)O)c1C
82 | 762 | CCN(Cc1ccccc1)C(=O)c1ncn2c1C(=O)N(CC)C(C)(C(=O)NCc1ccc(F)cc1)C2 (stereo not given)
83 | 948 | COc1ccccc1CC1C(=O)Nc2ccc(Cl)cc21 (stereo not given)
84 | 611 | O=C(CSc1ccc(N2CCCC(C(=O)NC3CC3)C2)nn1)Nc1cccc(F)c1 (stereo not given)
85 | 751 | COc1ccc(NC(=O)Cc2csc3nc(-c4ccccc4)cn23)cc1
86 | 821 | Cc1nn(-c2ccccc2)c2c1N(CC(=O)NCCC(C)C)C(=O)CS2
87 | 918 | COc1ccc(NC(=O)C2(C)Oc3cccnc3N(C(C)C)C2=O)cc1 (stereo not given)
88 | 626 | O=S(=O)(Cc1ccccc1F)N1CCc2nnc(C3CC3)n2CC1
89 | 972 | CCc1ccc(S(=O)(=O)N2CCC(n3c(-c4ccco4)nc4cccnc43)C2)cc1 (stereo not given)
90 | 693 | CCn1cc(-c2ccc(C)cc2)cc1C(=O)NCCCN1CCOCC1
